Laboratory results as given in the supplement of paper PMC8612539.
Values after ≈ are worked out from the molar mass of the structure shown.

Tested on: Pasteurella multocida
Assay: minimum inhibitory concentration (MIC)
Procedure: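 Broth microdilution MIC (Sensititre BOPO7F bovine plate, CLSI methods) of 19 antimicrobials against field isolates of P. multocida, M. haemolytica, H. somni (deep nasopharyngeal swabs) and E. coli, Enterococcus spp. (rectal swabs) from weaned dairy heifers. Incubation 16-24 h at 35 C. MIC is the lowest concentration preventing visible growth. Values with <= or > lie at the tested range limits. Trimethoprim-sulfamethoxazole is given as the trimethoprim component of a 1:19 mixture.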

C=C[C@]1(C)C[C@@H](OC(=O)CSCCN(CC)CC)[C@]2(C)[C@H](C)CC[C@]3(CCC(=O)[C@H]32)[C@@H](C)[C@@H]1O [Tiamulin]
Settings	minimum inhibitory concentration [µg/mL]
isolate (source animal id): 153	32 (≈ 64.8 µM)
isolate (source animal id): 155	32 (≈ 64.8 µM)
isolate (source animal id): 157	16 (≈ 32.4 µM)
isolate (source animal id): 160	32 (≈ 64.8 µM)
isolate (source animal id): 164	32 (≈ 64.8 µM)
isolate (source animal id): 165	32 (≈ 64.8 µM)
isolate (source animal id): 167	32 (≈ 64.8 µM)
isolate (source animal id): 168	32 (≈ 64.8 µM)
isolate (source animal id): 169	16 (≈ 32.4 µM)
isolate (source animal id): 170	32 (≈ 64.8 µM)
isolate (source animal id): 171	32 (≈ 64.8 µM)
isolate (source animal id): 172	32 (≈ 64.8 µM)
isolate (source animal id): 173	32 (≈ 64.8 µM)
isolate (source animal id): 174	16 (≈ 32.4 µM)
isolate (source animal id): 175	32 (≈ 64.8 µM)
isolate (source animal id): 176	16 (≈ 32.4 µM)
isolate (source animal id): 177	32 (≈ 64.8 µM)
isolate (source animal id): 178	32 (≈ 64.8 µM)
isolate (source animal id): 179	32 (≈ 64.8 µM)
isolate (source animal id): 182	32 (≈ 64.8 µM)
isolate (source animal id): 192	32 (≈ 64.8 µM)
isolate (source animal id): 193	32 (≈ 64.8 µM)
isolate (source animal id): 195	32 (≈ 64.8 µM)
isolate (source animal id): 196	32 (≈ 64.8 µM)
isolate (source animal id): 197	32 (≈ 64.8 µM)
isolate (source animal id): 198	32 (≈ 64.8 µM)
isolate (source animal id): 199	32 (≈ 64.8 µM)
isolate (source animal id): 200	32 (≈ 64.8 µM)
isolate (source animal id): 201	32 (≈ 64.8 µM)
isolate (source animal id): 203	16 (≈ 32.4 µM)
isolate (source animal id): 204	32 (≈ 64.8 µM)
isolate (source animal id): 205	32 (≈ 64.8 µM)
isolate (source animal id): 206	32 (≈ 64.8 µM)
isolate (source animal id): 207	32 (≈ 64.8 µM)
isolate (source animal id): 208	16 (≈ 32.4 µM)
isolate (source animal id): 209	16 (≈ 32.4 µM)
isolate (source animal id): 210	32 (≈ 64.8 µM)
isolate (source animal id): 213	16 (≈ 32.4 µM)
isolate (source animal id): 216	32 (≈ 64.8 µM)
isolate (source animal id): 223	16 (≈ 32.4 µM)
isolate (source animal id): 227	16 (≈ 32.4 µM)
isolate (source animal id): 229	32 (≈ 64.8 µM)
isolate (source animal id): 233	> 32
isolate (source animal id): 234	32 (≈ 64.8 µM)
isolate (source animal id): 237	32 (≈ 64.8 µM)
isolate (source animal id): 241	32 (≈ 64.8 µM)
isolate (source animal id): 245	32 (≈ 64.8 µM)
isolate (source animal id): 247	32 (≈ 64.8 µM)
isolate (source animal id): 250	32 (≈ 64.8 µM)
isolate (source animal id): 254	32 (≈ 64.8 µM)
isolate (source animal id): 255	16 (≈ 32.4 µM)
isolate (source animal id): 258	32 (≈ 64.8 µM)
isolate (source animal id): 261	32 (≈ 64.8 µM)
isolate (source animal id): 262	32 (≈ 64.8 µM)
isolate (source animal id): 269	32 (≈ 64.8 µM)
isolate (source animal id): 270	32 (≈ 64.8 µM)
isolate (source animal id): 274	32 (≈ 64.8 µM)
isolate (source animal id): 275	32 (≈ 64.8 µM)
isolate (source animal id): 276	32 (≈ 64.8 µM)
isolate (source animal id): 277	32 (≈ 64.8 µM)
isolate (source animal id): 278	32 (≈ 64.8 µM)
isolate (source animal id): 279	32 (≈ 64.8 µM)
isolate (source animal id): 280	32 (≈ 64.8 µM)
isolate (source animal id): 284	32 (≈ 64.8 µM)
isolate (source animal id): 285	32 (≈ 64.8 µM)
isolate (source animal id): 287	32 (≈ 64.8 µM)
isolate (source animal id): 290	32 (≈ 64.8 µM)
isolate (source animal id): 294	32 (≈ 64.8 µM)
isolate (source animal id): 295	> 32
isolate (source animal id): 296	32 (≈ 64.8 µM)
isolate (source animal id): 307	32 (≈ 64.8 µM)
isolate (source animal id): 310	> 32
isolate (source animal id): 311	> 32
isolate (source animal id): 312	32 (≈ 64.8 µM)
isolate (source animal id): 313	32 (≈ 64.8 µM)
isolate (source animal id): 315	32 (≈ 64.8 µM)
isolate (source animal id): 316	32 (≈ 64.8 µM)
